Data from article PMC4376724, “Differential Phenotypic and Functional Profiles of TcCA-2 -Specific Cytotoxic CD8^+ T Cells in the Asymptomatic versus Cardiac Phase in Chagasic Patients” (PLoS ONE, 2015).

Key:
[1] = tested on: PBMC from HLA-A*02:01 Chagas disease patients and healthy donors; test: Cytokine secretion test (Bio-Plex multiplex immunoassay) in PBMC supernatants; format: cell-based, human; conditions: 1 μM peptide, 30 h; for IFNγ / IL6 / TNFα: non-peptide control subtracted
Experimental: (§1) For the screening of the recognition of TcCA-2 epitopes by Chagas disease patients, 10 HLA-A*02:01 adult patients in the asymptomatic phase of the disease (IND) were enrolled. For cytotoxicity, functional activity determinations and phenotypic characterization another group of 19 HLA-A*02:01 adults Chagas disease patients and 9 healthy donors were analyzed. These patients were at the chronic stage of the disease and were considered to be at the asymptomatic phase (IND, n = 8) if there was no evidence of having cardiac or gastrointestinal disorders. Chronic Chagas cardiomyopathy patients (CCC, n = 11) were stratified into G1 to G3 stages following Kuschnir classification according to clinical criteria and radiological, electrocardiographic and echocardiography analyses. The number of patients was the one recommended by the Hospital Ethical Committee. […] The patients were enrolled in both studies (functional and phenotypic characterization, IND n = 6 and CCC n = 7) when the available number of purified PBMC (limited by the cellular number isolated from each subject) was enough for both analyses. Another four CCC patients had to be enrolled to perform the phenotypic analysis in order to reach statistical significance.
(§2) Cytokine secretion (IL-4, IL-10, IL-6, IFN-γ, TNF-α) was determined in the supernatants of PBMC from Chagas disease patients and healthy donors, after in vitro stimulation with 1 μM of each peptide for 30 h at 37°C in RPMI supplemented with 10% iFBS as explained before. The secretion profile was determined by using a bead-based multiplex immunoassay system (Bio-Plex, Bio-Rad), following the manufacturer's instructions. The response was considered positive if an increase in the secretion of cytokines was at least three folds higher than the secretion by un-stimulated cells (basal secretion level) and at least, 4 pg/mL for IL-4, 2 pg/mL for IL-10, 15 pg/mL for IL-6 and 5 pg/mL for IFN-γ and TNF-α. The positive control consisted of 50 ng/mL Phorbol 12 myristate 13-acetate (PMA) and 500 ng/mL ionomycin (Sigma). Cytokine levels were quantified in each sample by using the Bio-Plex Manager software 4.1 (Bio-Rad).
Functional analysis of the epitope-specific CD8^+ T cells was carried out by the determination of the secretion profile of IFN-γ, TNF-α, IL-4, IL10 and IL-6 cytokines. […] CD8^+ T cells from 2 out of 11 patients responded to stimulation with peptide TcCA-2_273-281 by secreting IL-6. […] There was no secretion of IL-4 and IL-10 in PBMC after stimulation with any one of the four TcCA-2 peptides (data not shown). IFN-γ, TNF-α and IL6 cytokines secretion levels were higher in patients at the asymptomatic phase of the disease than in Chagas patients with associated cardiomyopathy.

[2] = tested on: PBMCs from asymptomatic HLA-A*02:01 Chagas disease patients; test: HLA-A*02:01 restriction assay: peptide-pulsed K562-A2 cells as APC, IFN-γ secretion by patient PBMC; format: cell-based, human; conditions: range among patients with a positive response; K562-A2 pulsed with 1 mM peptide 1 h, 30 h co-culture; K562 level subtracted
Experimental: TAP-deficient T2 cells were used for the HLA-A*02:01 binding assays and the K562-A2 cells for the HLA-A*02:01 restriction assay. The cells were cultured in complete RPMI medium supplemented with 10% of inactivated Fetal Calf Serum (iFCS), 2 mM glutamine, and 100 U/ml penicillin. K562-A2 cells, expressing the HLA-A*02:01 molecule were cultured in the presence of […] of G-418, as previously described. The T2 and K562-A2 cells were kindly provided by Dr. Pedro Romero (University of Lausanne) and by Dr Peter Ponsaerts (University of Antwerp, with the permission of Dr. Cedrik Britten from Johanes Gutenberg-University Mainz), respectively.
as §1
as §2, with “(Bio-Rad). […]” for “(Bio-Rad).”

ALQVTNHRYL [TcCA-2_657-666]
IFNγ ([1]; PBMC of patient CCC I 770): 0 pg/mL | IL6 ([1]; PBMC of patient CCC I 770): 1 pg/mL | TNFα ([1]; PBMC of patient CCC I 770): -6 pg/mL | IFNγ ([1]; PBMC of patient CCC I 861): 0 pg/mL | IL6 ([1]; PBMC of patient CCC I 861): -4 pg/mL | TNFα ([1]; PBMC of patient CCC I 861): -2 pg/mL | IFNγ ([1]; PBMC of patient CCC I 884): 0 pg/mL | IL6 ([1]; PBMC of patient CCC I 884): 0 pg/mL | TNFα ([1]; PBMC of patient CCC I 884): 0 pg/mL | IFNγ ([1]; PBMC of patient CCC III 509): 0 pg/mL | IL6 ([1]; PBMC of patient CCC III 509): -4 pg/mL | TNFα ([1]; PBMC of patient CCC III 509): -5 pg/mL | IFNγ ([1]; PBMC of patient IND 365): 2 pg/mL | IL6 ([1]; PBMC of patient IND 365): 10 pg/mL | TNFα ([1]; PBMC of patient IND 365): 14 pg/mL | IFNγ ([1]; PBMC of patient IND 388): 2 pg/mL | IL6 ([1]; PBMC of patient IND 388): 2 pg/mL | TNFα ([1]; PBMC of patient IND 388): -5 pg/mL | IFNγ ([1]; PBMC of patient IND 510): 0 pg/mL | IL6 ([1]; PBMC of patient IND 510): -3 pg/mL | TNFα ([1]; PBMC of patient IND 510): 1 pg/mL | IFNγ ([1]; PBMC of patient IND 535): 0 pg/mL | IL6 ([1]; PBMC of patient IND 535): -5 pg/mL | TNFα ([1]; PBMC of patient IND 535): -2 pg/mL | IFNγ ([1]; PBMC of patient IND 571): 1 pg/mL | IL6 ([1]; PBMC of patient IND 571): 0 pg/mL | TNFα ([1]; PBMC of patient IND 571): 0 pg/mL | IFNγ ([1]; PBMC of patient IND 917): -1 pg/mL | IL6 ([1]; PBMC of patient IND 917): -17 pg/mL | TNFα ([1]; PBMC of patient IND 917): -17 pg/mL | IFNγ ([1]; PBMC of subject HD 001): -2 pg/mL | IL6 ([1]; PBMC of subject HD 001): 1 pg/mL | TNFα ([1]; PBMC of subject HD 001): -6 pg/mL | IFNγ ([1]; PBMC of subject HD 004): 4 pg/mL | IL6 ([1]; PBMC of subject HD 004): -12 pg/mL | TNFα ([1]; PBMC of subject HD 004): -1 pg/mL | IFNγ ([1]; PBMC of subject HD 005): 0 pg/mL | IL6 ([1]; PBMC of subject HD 005): -58 pg/mL | TNFα ([1]; PBMC of subject HD 005): -4 pg/mL | IFNγ ([1]; PBMC of subject HD 006): 3 pg/mL | IL6 ([1]; PBMC of subject HD 006): -5 pg/mL | TNFα ([1]; PBMC of subject HD 006): 1 pg/mL | IFNγ ([1]; PBMC of subject HD 008): -3 pg/mL | IL6 ([1]; PBMC of subject HD 008): 3 pg/mL | TNFα ([1]; PBMC of subject HD 008): -21 pg/mL | IFNγ ([1]; PBMC of subject HD 011): 0 pg/mL | IL6 ([1]; PBMC of subject HD 011): -4 pg/mL | TNFα ([1]; PBMC of subject HD 011): 0 pg/mL | IFNγ ([1]; PBMC of subject HD 017): 0 pg/mL | IL6 ([1]; PBMC of subject HD 017): 0 pg/mL | TNFα ([1]; PBMC of subject HD 017): 0 pg/mL | IFNγ ([1]; PBMC of subject HD 340): 1 pg/mL | IL6 ([1]; PBMC of subject HD 340): 22 pg/mL | TNFα ([1]; PBMC of subject HD 340): 8 pg/mL | IFNγ ([1]; PBMC of subject HD 664): -3 pg/mL | IL6 ([1]; PBMC of subject HD 664): 0 pg/mL | TNFα ([1]; PBMC of subject HD 664): 0 pg/mL | INF-γ secretion range [2]: 6.1 to 6.7 pg/mL

AAAGDKLSL [TcCA-2_273-281]
Patients whose cells responded by secreting IL-6 ([1]; PBMC of Chagas patients, same positivity criteria): 2 out of 11 | IFNγ ([1]; PBMC of patient CCC I 456): 0 pg/mL | IL6 ([1]; PBMC of patient CCC I 456): 0 pg/mL | TNFα ([1]; PBMC of patient CCC I 456): 0 pg/mL | IFNγ ([1]; PBMC of patient CCC I 770): 0 pg/mL | IL6 ([1]; PBMC of patient CCC I 770): 22 pg/mL | TNFα ([1]; PBMC of patient CCC I 770): 4 pg/mL | IFNγ ([1]; PBMC of patient CCC I 861): 2 pg/mL | IL6 ([1]; PBMC of patient CCC I 861): -4 pg/mL | TNFα ([1]; PBMC of patient CCC I 861): -2 pg/mL | IFNγ ([1]; PBMC of patient CCC I 884): 0 pg/mL | IL6 ([1]; PBMC of patient CCC I 884): 0 pg/mL | TNFα ([1]; PBMC of patient CCC I 884): 0 pg/mL | IFNγ ([1]; PBMC of patient CCC III 509): 0 pg/mL | IL6 ([1]; PBMC of patient CCC III 509): -4 pg/mL | TNFα ([1]; PBMC of patient CCC III 509): -5 pg/mL | IFNγ ([1]; PBMC of patient IND 365): 1 pg/mL | IL6 ([1]; PBMC of patient IND 365): 43 pg/mL | TNFα ([1]; PBMC of patient IND 365): -6 pg/mL | IFNγ ([1]; PBMC of patient IND 388): 2 pg/mL | IL6 ([1]; PBMC of patient IND 388): 36 pg/mL | TNFα ([1]; PBMC of patient IND 388): 7 pg/mL | IFNγ ([1]; PBMC of patient IND 510): 0 pg/mL | IL6 ([1]; PBMC of patient IND 510): 1 pg/mL | TNFα ([1]; PBMC of patient IND 510): -1 pg/mL | IFNγ ([1]; PBMC of patient IND 535): 0 pg/mL | IL6 ([1]; PBMC of patient IND 535): -5 pg/mL | TNFα ([1]; PBMC of patient IND 535): -1 pg/mL | IFNγ ([1]; PBMC of patient IND 571): 0 pg/mL | IL6 ([1]; PBMC of patient IND 571): 0 pg/mL | TNFα ([1]; PBMC of patient IND 571): 0 pg/mL | IFNγ ([1]; PBMC of patient IND 917): 7 pg/mL | IL6 ([1]; PBMC of patient IND 917): 18 pg/mL | TNFα ([1]; PBMC of patient IND 917): 11 pg/mL | IFNγ ([1]; PBMC of subject HD 001): 6 pg/mL | IL6 ([1]; PBMC of subject HD 001): 1 pg/mL | TNFα ([1]; PBMC of subject HD 001): -8 pg/mL | IFNγ ([1]; PBMC of subject HD 004): 0 pg/mL | IL6 ([1]; PBMC of subject HD 004): -9 pg/mL | TNFα ([1]; PBMC of subject HD 004): 0 pg/mL | IFNγ ([1]; PBMC of subject HD 005): -19 pg/mL | IL6 ([1]; PBMC of subject HD 005): -183 pg/mL | TNFα ([1]; PBMC of subject HD 005): -11 pg/mL | IFNγ ([1]; PBMC of subject HD 006): 6 pg/mL | IL6 ([1]; PBMC of subject HD 006): 1 pg/mL | TNFα ([1]; PBMC of subject HD 006): 2 pg/mL | IFNγ ([1]; PBMC of subject HD 008): -1 pg/mL | IL6 ([1]; PBMC of subject HD 008): 9 pg/mL | TNFα ([1]; PBMC of subject HD 008): 0 pg/mL | IFNγ ([1]; PBMC of subject HD 011): 0 pg/mL | IL6 ([1]; PBMC of subject HD 011): -11 pg/mL | TNFα ([1]; PBMC of subject HD 011): -8 pg/mL | IFNγ ([1]; PBMC of subject HD 340): 0 pg/mL | IL6 ([1]; PBMC of subject HD 340): 9 pg/mL | TNFα ([1]; PBMC of subject HD 340): 4 pg/mL | IFNγ ([1]; PBMC of subject HD 664): -3 pg/mL | IL6 ([1]; PBMC of subject HD 664): 0 pg/mL | TNFα ([1]; PBMC of subject HD 664): 0 pg/mL | INF-γ secretion range [2]: 8.6 pg/mL
